In article PMC11396935, “Exploration of Compounds with 2-Phenylbenzo[d]oxazole Scaffold as Potential Skin-Lightening Agents through Inhibition of Melanin Biosynthesis and Tyrosinase Activity” (Molecules, 2024):
Where two headings read alike, the source gives them in different places.

Experiments:
mushroom tyrosinase = target: T1, mushroom tyrosinase (Agaricus bisporus, UniProt C7FF04); experiment: Mushroom tyrosinase activity inhibition assay (L-tyrosine or L-dopa as substrate); format: biochemical; details: mushroom tyrosinase, 37 °C, mean ± SEM of triplicates
T1 construct: purchased Sigma-Aldrich (St. Louis, MO, USA)
Protocol: 3.3. Tyrosinase Activity Assay Using Mushroom Tyrosinase
The tyrosinase inhibitory activity of the 2-phenylbenzoxazoles was evaluated using a mushroom tyrosinase activity assay, following a previously described method. An aqueous substrate mixture, consisting of phosphate buffer (pH 6.5; 17.2 mM) and L-tyrosine or L-dopa (345 μM), was prepared. A 96-well plate containing the test sample in dimethyl sulfoxide (DMSO) solution (10 μL), aqueous mushroom tyrosinase solution (20 μL; 200 units), and aqueous substrate mixture (170 μL) in each well was incubated at 37 °C for 15 min for L-dopa and 30 min for L-tyrosine, respectively.

[1] = ABTS radical cation scavenging assay; details: 100 μM
Protocol: For ABTS^+• scavenging experiments, ABTS^+• was generated by oxidizing ABTS using potassium persulfate. All test samples (Trolox [TR; positive material] and 1–15) were used at a final concentration of 100 μM. […] Both compounds share a common catechol structure. […] Similar results were obtained in the DPPH radical scavenging experiment. […] Compounds 4, 9, and 14, bearing a 4-hydroxy-3-methoxyphenyl, scavenged ABTS^+• moderately (23–51%).
3.15. 2,2′-Azino-bis(3-ethylbenzothiazoline-6-sulfonic Acid) (ABTS) Radical Cation Scavenging Assay
The effect of the 2-phenylbenzoxazole compounds 1–15 on radical scavenging was assessed using an ABTS assay, as previously reported. An ABTS aqueous solution (7 mM) was mixed with a K2S2O8 aqueous solution (2.45 mM) in equal volumes (each 20 mL) and incubated in the dark for 20 h at 25 °C to generate ABTS^+•. The ABTS^+• solution was then diluted with pure EtOH to adjust the absorbance of the solution to 0.7 ± 0.02 at 730 nm. The test samples (1–15 and Trolox [positive control]) were dissolved in a co-solvent of EtOH and DMSO (9:1, v/v) to make a 1 mM solution. The diluted ABTS^+• solution was mixed with the test sample solution at a volume ratio of 9:1 (90 μL:10 μL) and the mixture was stored for 2 min at 20 °C in the dark. The optical density was measured at 730 nm using an ELISA reader at 1 min intervals for 10 min. All test samples were used at a final concentration of 100 µM.
ABTS^+• radical scavenging activity (%) = [(ODcon − ODsam)/ODcon] × 100, where ODsam and ODcon represent the absorbances of the test sample and the control, respectively.

[2] = DPPH radical scavenging assay; details: 500 μM, 30 min in the dark
Protocol: The DPPH radical scavenging activity was assessed by mixing DPPH solution with compounds 1–15 and incubating them in the dark for 30 min. All test samples were evaluated at 500 μM.
3.14. 2,2′-Diphenyl-1-picrylhydrazyl (DPPH) Radical Scavenging Assay
As previously reported, the ability of compounds 1–15 to remove DPPH radicals was evaluated. A 0.2 mM methanolic DPPH solution was mixed with a 5 mM L-ascorbic acid aqueous solution or 5 mM DMSO solution of 1–15 at a ratio of […] (v/v, 180 μL:20 μL) in each well of a 96-well microplate. After incubating the microplate in the dark for 30 min, the optical density of each well was measured at 517 nm using an ELISA reader. DPPH scavenging activity (%) = (OD[control] − OD[sample]) × 100/OD[control].

[3] = ROS scavenging assay (SIN-1/DCFH); details: 40 μM; SIN-1 10 μM; 30 min
Protocol: For ROS scavenging experiments, test samples (1–15 and Trolox [positive control]; 40 μM) containing 3-morpholinosydnonimine (SIN-1; 10 μM) were mixed with a 2′,7′-dichlorodihydrofluorescein (DCFH) solution. After 30 min, the ROS scavenging activity of the test samples was assessed.
3.16. Reactive Oxygen Species (ROS) Scavenging Assay
The ability of compounds 1–15 to remove ROS was assayed as previously reported. […] A 3-morpholinosydnonimine (SIN-1) solution (10 μL, 250 μM) and phosphate buffer (180 μL) were mixed with a test sample (1–15; 10 μL, 1 mM) in DMSO solution or Trolox (10 μL, 1 mM; positive control) in each well of a 96-well black plate and left in the dark 25 °C for 5 min. The SIN-1-test sample mixture was then combined with the generated DCFH solution (50 μL). Fluorescence was measured in 5 min intervals for 30 min at 530 nm using a microplate reader (Berthold Advances GmbH & Co., Bad Wildbad, Germany) with excitation at 485 nm.

zebrafish larvae [4] = experiment: Melanin content in zebrafish larvae; format: in vivo, zebrafish (Danio rerio); details: compound 8 0.025 mM; kojic acid 20 mM; treated 28 hpf, read 74 hpf
Protocol: (§1) . Zebrafish embryos obtained by natural mating were dechorionated at 24 hpf and treated with compound 8 (0.025 mM) or kojic acid (20 mM) at 28 hpf. After 46 h, the melanin content and tyrosinase activity were determined.
(§2) 3.13. Measurement of Melanin Content and Tyrosinase Activity in Zebrafish Larvae
(§3) The effects of the 2-phenylbenzo[d]oxazole compound 8 on the melanin content and tyrosinase activity in the zebrafish larvae were assessed using a previously defined procedure with minor modifications. To quantify the melanin content in the zebrafish larvae, zebrafish embryos were obtained through natural mating and operated in a similar manner to the in vivo depigmentation experiment (25 zebrafish embryos per well in a 24-well plate; dechorionation at 24 hpf; test sample treatment (8 [0.025 mM] and kojic acid [20 mM; positive control]) at 28 hpf). Melanin quantification and tyrosinase activity were quantified at 74 hpf. For melanin quantification, the zebrafish larvae were lysed in RIPA buffer (Biosesang, Gyeonggi-do, Korea) and homogenized using a sonicator. […] The absorbance was measured at 405 nm using a microplate reader. For the tyrosinase activity measurement, the supernatants were transferred to new Eppendorf tubes and the protein was quantified using a Pierce BCA protein assay kit, with the absorbance being measured at 570 nm using a microplate reader. […]

[5] = system: tyrosinase activity in zebrafish larvae; experiment: Tyrosinase activity in zebrafish larvae; format: in vivo, zebrafish (Danio rerio); details: compound 8 0.025 mM; kojic acid 20 mM; treated 28 hpf, read 74 hpf
Protocol: as §1, §2, §3

zebrafish larvae [6] = experiment: In vivo depigmentation experiment using zebrafish embryos; details: kojic acid 20 mM; compound 8 0.025 mM; compound 13 0.025 and 0.05 mM; 76 hpf
Protocol: Zebrafish embryos were used in this study. […] The zebrafish embryos were obtained through natural mating in our laboratory. The chorion of the zebrafish embryos was removed 24 h post-fertilization (hpf).
In Vivo Depigmentation Experiment Using Zebrafish Embryos
A depigmentation experiment was performed using zebrafish embryos, as previously described [38, 49, 50]. Wild-type zebrafish (Danio rerio) were maintained in a fish tank at 28 °C and fed with dried brine shrimp (Artemia salina, San Francisco Bay Brand, San Francisco, CA, USA) three times daily. The zebrafish embryos were obtained through natural mating in mating cages. The obtained zebrafish embryos were transferred to a 90 mm culture dish containing 200 μL of E3-methylene blue (MB) solution, consisting of 0.001% MB, 0.17 mM KCl, 0.33 mM CaCl2, 0.33 mM MgSO4, and 5 mM NaCl, and incubated in an incubator set at 28 °C. At 24 h post-fertilization (hpf), the zebrafish embryos were dechorionated using pronase (Sigma-Aldrich, St. Louis, MO, USA). […] The 48-well plates were incubated in an incubator set at 28 °C for 48 h. At 76 hpf, the zebrafish larvae were mounted on a 1% methylcellulose block after anesthesia with tricaine methanesulfonate (Thermo Fisher Scientific, Waltham, MA, USA), and photographs of the zebrafish larvae were obtained using a SMZ745T stereoscopic microscope (Nikon, Tokyo, Japan). The pigmented areas of the zebrafish larvae were determined using the CS analyzer 3.0 image analysis software (ATTO, Tokyo, Japan).

[7] = system: B16F10 tyrosinase in situ; details: compounds 1, 2, 5 μM; kojic acid 5 μM; α-MSH + IBMX 72 h; excess L-dopa
Protocol: To evaluate the effect of the compounds on in situ tyrosinase activity, an experiment using B16F10 cells was performed as previously described [34, 35]. […] Excess L-dopa was added to increase their melanin production prior to the acquisition of cell images.
In Situ Tyrosinase Activity Assay Using B16F10 Cells and L-dopa
In situ tyrosinase activity was measured in B16F10 cells using L-dopa, as reported previously [34]. […] The cells were processed as follows: (1) fixing with 4% paraformaldehyde for 40 min, (2) washing with PBS, and (3) permeabilizing with 0.1% Triton X-100 for 2 min. After washing with PBS, the cells were stained with L-dopa (2 mM; 500 μL) at 37 °C for 2 h. Stained images were collected using a camera connected to a microscope (Motic, Hong Kong).

[8] = substrate L-dopa, 15 min, read-out: IC50 Values, L-Dopa
[9] = substrate L-tyrosine, 30 min, read-out: IC50 Values, L-Tyrosine

T1 sequence (C7FF04 1-392 limits assumed): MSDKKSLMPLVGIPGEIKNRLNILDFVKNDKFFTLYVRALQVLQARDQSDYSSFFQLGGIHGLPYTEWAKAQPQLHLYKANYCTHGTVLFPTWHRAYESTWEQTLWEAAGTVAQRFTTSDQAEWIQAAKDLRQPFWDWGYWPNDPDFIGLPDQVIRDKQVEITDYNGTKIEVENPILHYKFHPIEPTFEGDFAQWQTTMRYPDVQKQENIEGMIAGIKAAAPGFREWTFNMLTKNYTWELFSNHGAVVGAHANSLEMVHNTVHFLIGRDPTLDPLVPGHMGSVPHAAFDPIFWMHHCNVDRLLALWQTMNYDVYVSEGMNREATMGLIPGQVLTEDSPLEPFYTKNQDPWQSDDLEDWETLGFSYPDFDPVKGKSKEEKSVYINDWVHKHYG

| SMILES | IC50 (mushroom tyrosinase; [8]) [µM] | IC50 (mushroom tyrosinase; [9]) [µM] | ABTS+• scavenging activity (% inhibition) [1] | further results |
| --- | --- | --- | --- | --- |
| COc1ccc(-c2nc3ccc(Cl)cc3o2)c(OC)c1 [Compound 7, 6-Chloro-2-(2,4-dimethoxyphenyl)benzo[d]oxazole] | > 200 | > 200 | less than 5% | – |
| COc1ccc(-c2nc3ccc(Cl)cc3o2)cc1O [Compound 9, 5-(6-Chlorobenzo[d]oxazol-2-yl)-2-methoxyphenol] | > 200 | > 200 | – | – |
| Oc1ccc(-c2nc3ccc(Cl)cc3o2)cc1O [Compound 10, 4-(6-Chlorobenzo[d]oxazol-2-yl)benzene-1,2-diol] | > 200 | 59 ± 4.74 | 81% | DPPH radical scavenging activity [2]: 86%; ROS scavenging activity [3]: strong to moderate ROS-scavenging activity |
| Cc1ccc2oc(-c3ccc(O)cc3)nc2c1 [Compound 11, 4-(5-Methylbenzo[d]oxazol-2-yl)phenol] | > 200 | 76.8 ± 3.84 | – | – |
| COc1ccc(-c2nc3cc(C)ccc3o2)c(OC)c1 [Compound 12, 2-(2,4-Dimethoxyphenyl)-5-methylbenzo[d]oxazole] | > 200 | > 200 | less than 5% | – |
| COc1ccc(-c2nc3cc(C)ccc3o2)cc1O [Compound 14, 2-Methoxy-5-(5-methylbenzo[d]oxazol-2-yl)phenol] | > 200 | 146 ± 16.4 | – | – |
| Cc1ccc2oc(-c3ccc(O)c(O)c3)nc2c1 [Compound 15, 4-(5-Methylbenzo[d]oxazol-2-yl)benzene-1,2-diol] | > 200 | 80.3 ± 5.24 | 83% | DPPH radical scavenging activity [2]: 86%; ROS scavenging activity [3]: strong ROS scavenging efficacy comparable to that of Trolox |
| O=C1O[C@H]([C@@H](O)CO)C(O)=C1O [L-ascorbic acid, reference compound] | – | – | – | DPPH radical scavenging activity [2]: 96% |
| Cc1c(C)c2c(c(C)c1O)CCC(C)(C(=O)O)O2 (centres unmarked) [Trolox, reference compound] | – | – | 99% | ROS scavenging activity [3]: most potent ROS scavenging activity |
| O=c1cc(CO)occ1O [kojic acid, Kojic acid, reference compound] | – | – | – | melanin content of zebrafish larvae, vs untreated control (100%) (zebrafish larvae [4]): 53%; % tyrosinase activity in zebrafish larvae, vs untreated control (100%) [5]: 57%; depigmentation effect on zebrafish larvae (photographs) (zebrafish larvae [6]): reduced pigmentation in all regions except the eyes; pigmentation area of zebrafish larvae (CS analyzer) (zebrafish larvae [6]): decreased the pigmentation area compared to the control; melanin formation, in situ tyrosinase activity in B16F10 cells [7]: markedly decreased melanin formation |

Continued, in another order:

| IC50 (mushroom tyrosinase; [8]) [µM] | IC50 (mushroom tyrosinase; [9]) [µM] | SMILES | ABTS+• scavenging activity (% inhibition) [1] | further results |
| --- | --- | --- | --- | --- |
| > 200 | 153 ± 14.3 | Cc1ccc2nc(-c3ccc(O)cc3)oc2c1 [Compound 1, 4-(6-Methylbenzo[d]oxazol-2-yl)phenol] | – | – |
| > 200 | > 200 | COc1ccc(-c2nc3ccc(C)cc3o2)c(OC)c1 [Compound 2, 2-(2,4-Dimethoxyphenyl)-6-methylbenzo[d]oxazole] | less than 5% | – |
| > 200 | > 200 | COc1ccc(-c2nc3ccc(C)cc3o2)cc1O [Compound 4, 2-Methoxy-5-(6-methylbenzo[d]oxazol-2-yl)phenol] | – | – |
| 187 ± 30.3 | 144 ± 3.1 | Cc1ccc2nc(-c3ccc(O)c(O)c3)oc2c1 [Compound 5, 4-(6-Methylbenzo[d]oxazol-2-yl)benzene-1,2-diol] | 13% | DPPH radical scavenging activity (in words) [2]: weak DPPH radical scavenging effect; ROS scavenging activity [3]: strong ROS scavenging efficacy |
| > 200 | 57.5 ± 8.78 | Oc1ccc(-c2nc3ccc(Cl)cc3o2)cc1 [Compound 6, 4-(6-Chlorobenzo[d]oxazol-2-yl)phenol] | – | – |
